Consider 11 molecules from patent publication US20180002319A1, “MACROCYCLIC PICOLINAMIDE COMPOUNDS WITH FUNGICIDAL ACTIVITY” (DOW AGROSCIENCES LLC, priority 2014, published 2018).

Where two headings read alike, the source gives them in different places.

Common to all, as to format: in vivo
One experiment deals with Zymoseptoria tritici. The experiment is described as follows: Leaf Blotch of Wheat (SEPTTR) fungicidal activity. As to conditions: wheat leaf blotch; for pest or weed control at 100 ppm: High Volume application; for pest or weed control at 121.5 g/ha: Low Volume application, 121.5 g/H. Summed up:
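Wheat seedlings (Yuma, first leaf emerged) were sprayed to run-off with compound in acetone/water containing Triton X-100 and inoculated with Z. tritici spores before or after treatment. Percent disease control comes from 0–100% severity on treated versus untreated plants.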

For experiment [1], the system named is Blumeria graminis f.sp. hordei. The experiment is described as follows: Barley Powdery Mildew (ERYSGH) fungicidal activity. As to conditions: 24 h, 1DP (1 Day Protectant), read-out: ERYSGH Disease Control. The method, then:
Technical grades of materials were dissolved in acetone, which were then mixed with nine volumes of H2O containing 110 ppm Triton X-100. The fungicide solutions were applied onto wheat seedlings using an automated booth sprayer to run-off. All sprayed plants were allowed to air dry prior to further handling. All fungicides were evaluated using the aforementioned method for their activity vs. all target diseases, unless stated otherwise. Wheat leaf blotch and brown rust activity were also evaluated using track spray applications, in which case the fungicides were formulated as EC formulations, containing 0.1% Trycol 5941 in the spray solutions. Wheat plants (variety Yuma) were grown from seed in a greenhouse in 50% mineral soil/50% soil-less Metro mix until the first leaf was fully emerged, with 7-10 seedlings per pot. These plants were inoculated with an aqueous spore suspension of Zymoseptoria tritici either prior to or after fungicide treatments. After inoculation the plants were kept in 100% relative humidity (one day in a dark dew chamber followed by two to three days in a lighted dew chamber at 20° C.) to permit spores to germinate and infect the leaf. The plants were then transferred to a greenhouse set at 20° C. for disease to develop. When disease symptoms were fully expressed on the 1st leaves of untreated plants, infection levels were assessed on a scale of 0 to 100 percent disease severity. Percent disease control was calculated using the ratio of disease severity on treated plants relative to untreated plants. Example J: Evaluation of Fungicidal Activity: Barley Powdery Mildew (Blumeria graminis f.sp. hordei; Synonym: Erysiphe graminis f.sp. hordei; Bayer Code […]) Barley seedlings (variety Harrington) were propagated in soil-less Metro mix, with each pot having 8 to 12 plants, and used in the test when first leaf was fully emerged. Test plants were inoculated by dusting with infected stock plants 24 hr after fungicide treatments. After inoculation the plants were kept in a greenhouse set at 20° C. for disease to develop. Fungicide formulation, application and disease assessment on the sprayed leaves followed the procedures as described in the Example A.

Experiment [2] concerns Magnaporthe grisea; Anamorph: Pyricularia oryzae. As to the kind of experiment: whole plant or invertebrate. As to conditions: 24 h, read-out: PYRIOR Disease Control.
Experiment [3] concerns Glomerella lagenarium; Anamorph: Colletotrichum lagenarium. As to the kind of experiment: Cucumber Anthracnose (COLLLA) fungicidal activity. The settings on record: Colletotrichum orbiculare, 24 h, 1DP (1 Day Protectant), read-out: COLLLA Disease Control. How it is done:
Technical grades of materials were dissolved in acetone, which were then mixed with nine volumes of H2O containing 110 ppm Triton X-100. The fungicide solutions were applied onto wheat seedlings using an automated booth sprayer to run-off. All sprayed plants were allowed to air dry prior to further handling. All fungicides were evaluated using the aforementioned method for their activity vs. all target diseases, unless stated otherwise. Wheat leaf blotch and brown rust activity were also evaluated using track spray applications, in which case the fungicides were formulated as EC formulations, containing 0.1% Trycol 5941 in the spray solutions. Wheat plants (variety Yuma) were grown from seed in a greenhouse in 50% mineral soil/50% soil-less Metro mix until the first leaf was fully emerged, with 7-10 seedlings per pot. These plants were inoculated with an aqueous spore suspension of Zymoseptoria tritici either prior to or after fungicide treatments. After inoculation the plants were kept in 100% relative humidity (one day in a dark dew chamber followed by two to three days in a lighted dew chamber at 20° C.) to permit spores to germinate and infect the leaf. The plants were then transferred to a greenhouse set at 20° C. for disease to develop. When disease symptoms were fully expressed on the 1st leaves of untreated plants, infection levels were assessed on a scale of 0 to 100 percent disease severity. Percent disease control was calculated using the ratio of disease severity on treated plants relative to untreated plants. Example N: Evaluation of Fungicidal Activity: Cucumber Anthracnose (Glomerella lagenarium; Anamorph: Colletotrichum lagenarium; Bayer Code COLLLA) Cucumber seedlings (variety Bush Pickle) were propagated in soil-less Metro mix, with each pot having one plant, and used in the test when 12 to 14 days old. Test plants were inoculated with an aqueous spore suspension of Colletotrichum lagenarium 24 hr after fungicide treatments. After inoculation the plants were kept in a dew room at 22° C. with 100% relative humidity for 48 hr to permit spores to germinate and infect the leaf. The plants were then transferred to a growth room set at 22° C. for disease to develop. Fungicide formulation, application and disease assessment on the sprayed leaves followed the procedures as described in the Example A.

[4] abbreviates: 24 h, 1 day protectant, read-out: SEPTTR disease control, 1DP (1 Day Protectant).
Setting [5] is: 72 h, 3 day curative, read-out: SEPTTR disease control, 3DC (3 Day Curative).

`CCCCO[C@H]1CCOC[C@H](NC(=O)c2nccc(OC)c2OCOC(C)=O)C(=O)O[C@@H](C)[C@@H]1OCc1ccccc1` [Compound 2]: the pest or weed control at 100 ppm was > 80% with Zymoseptoria tritici (setting [4]); < 80% in the experiment with Zymoseptoria tritici (setting [5]); < 80% in experiment [1]; > 80% in experiment [2]; > 80% in experiment [3]. The pest or weed control at 121.5 g/ha in the experiment on Zymoseptoria tritici (setting [4]) was < 80%.
Take `CCCCO[C@H]1CCOC[C@H](NC(=O)c2nccc(OC)c2OCOC(C)=O)C(=O)O[C@@H](C)[C@@H]1OC(=O)C1CC1` [Compound 5]: the pest or weed control at 100 ppm was > 80% with Zymoseptoria tritici (setting [4]), < 80% in the experiment with Zymoseptoria tritici (setting [5]), < 80% in experiment [2] and < 80% in experiment [3].
With `COc1ccnc(C(=O)N[C@H]2COCC[C@H](Cc3ccccc3)[C@@H](OCC(C)C)[C@H](C)OC2=O)c1OCOC(C)=O` [Compound 20], the pest or weed control at 121.5 g/ha in the experiment on Zymoseptoria tritici (setting [4]) was < 80%; in the experiment on Zymoseptoria tritici (setting [5]) it was > 80%. Moreover, the pest or weed control at 100 ppm was < 80% in experiment [1] and > 80% in experiment [3].
`COc1ccnc(C(=O)N[C@H]2COCC[C@@H](OCC(C)C)[C@@H](OCC(C)C)[C@H](C)OC2=O)c1OCOC(C)=O` [Compound 6]: the pest or weed control at 100 ppm (with Zymoseptoria tritici (setting [4]); in experiment [2]; in experiment [3]) was > 80% in each case.
Regarding `CCCCO[C@H]1CCOC[C@H](NC(=O)c2nccc(OC)c2OCOC(C)=O)C(=O)O[C@@H](C)[C@@H]1OC(=O)C(C)C` [Compound 3], the pest or weed control at 100 ppm is > 80% in the experiment on Zymoseptoria tritici (setting [4]); < 80% with Zymoseptoria tritici (setting [5]); < 80% in experiment [1]; > 80% in experiment [2]; < 80% in experiment [3].
As for `CCCCCO[C@H]1[C@H](C)OC(=O)[C@@H](NC(=O)c2nccc(OC)c2OCOC(C)=O)CCCC[C@@H]1Oc1ccccc1` [Compound 17], the pest or weed control at 100 ppm in the experiment on Zymoseptoria tritici (setting [4]) is > 80%; in the experiment on Zymoseptoria tritici (setting [5]), > 80%; in experiment [1] it was < 80%; in experiment [2], > 80%.
For `CCCO[C@H]1[C@H](C)OC(=O)[C@@H](NC(=O)c2nccc(OC)c2OCOC(C)=O)CCCC[C@@H]1Oc1ccccc1` [Compound 18], the pest or weed control at 100 ppm with Zymoseptoria tritici (setting [4]) was > 80%; in the experiment with Zymoseptoria tritici (setting [5]) it was > 80%; in experiment [1] it was < 80%; in experiment [2], > 80%.
Regarding `COc1ccnc(C(=O)N[C@H]2CCCC[C@H](Oc3ccccc3)[C@@H](Oc3ccccc3)[C@H](C)OC2=O)c1OCOC(C)=O` [Compound 19], the pest or weed control at 100 ppm is > 80% in the experiment on Zymoseptoria tritici (setting [4]), > 80% in the experiment on Zymoseptoria tritici (setting [5]), < 80% in experiment [1] and > 80% in experiment [2]. The pest or weed control at 121.5 g/ha with Zymoseptoria tritici (setting [4]) and in the experiment with Zymoseptoria tritici (setting [5]) was > 80% throughout.
Turning to `COc1ccnc(C(=O)N[C@H]2CCOC[C@H](Oc3ccccc3)[C@@H](Oc3ccccc3)[C@H](C)OC2=O)c1OCOC(C)=O` [Compound 37], the pest or weed control at 121.5 g/ha with Zymoseptoria tritici (setting [4]) and in the experiment on Zymoseptoria tritici (setting [5]) was > 80% in each case. The pest or weed control at 100 ppm in experiment [2] and in experiment [3] was > 80% in each case.
Regarding `CCCCO[C@H]1CCOC[C@H](NC(=O)c2nccc(OC)c2OCOC(C)=O)C(=O)O[C@@H](C)[C@@H]1OC(=O)c1ccccc1` [Compound 4], the pest or weed control at 100 ppm in the experiment with Zymoseptoria tritici (setting [4]) is > 80%; in the experiment on Zymoseptoria tritici (setting [5]), < 80%; in experiment [1], < 80%; in experiment [2] it was > 80%; in experiment [3], > 80%. The pest or weed control at 121.5 g/ha with Zymoseptoria tritici (setting [4]) was < 80%.
Take `COc1ccnc(C(=O)N[C@H]2COCC[C@H](Cc3ccccc3)[C@@H](OCC(C)C)[C@H](C)OC2=O)c1OC(C)=O` [Compound 21]: the pest or weed control at 121.5 g/ha in the experiment on Zymoseptoria tritici (setting [4]) is < 80%; in the experiment with Zymoseptoria tritici (setting [5]) it was > 80%. Besides, the figures for the pest or weed control at 100 ppm in experiment [1] and in experiment [3] were < 80% and > 80%, respectively.
